Data published in article PMC9886266, “New [1,2,4]triazolo[4,3-c]quinazolines as intercalative Topo II inhibitors: Design, synthesis, biological evaluation, and in silico studies” (PLOS ONE, 2023).
Like-named read-outs stand apart in the source and are kept apart here.

Tests used:
HepG2 cell line [1] = assay: MTT anti-proliferative assay, HepG2; format: cell-based; details: Homo sapiens, 48 h, three independent experiments, read-out: In vitro cytotoxicity IC50, HepG2
Protocol: (§1) In vitro antiproliferative activities of the target molecules were assessed against two human cancer cell lines namely, hepatocellular carcinoma (HepG2) and colorectal carcinoma (HCT-116) using MTT assay.
(§2) The anti-proliferative activity of the synthesized compounds was assessed using MTT assay protocol. A panel of human cancer cell lines namely, colorectal carcinoma (HCT-116) and hepatocellular carcinoma (HepG2) was used in this test. Doxorubicin was used as a positive control. The cell lines were got from ATCC (American Type Culture Collection) via the Holding company for biological products and vaccines (VACSERA, Cairo, Egypt). The anti-proliferative activities of the tested compounds were determined quantitatively as follows:
(§3) At first, the cells were cultured into a medium of RPMI-1640 with 10% fetal bovine serum. Then, two different antibiotics were added at 37°C in a 5% CO2 incubator: penicillin (100 units/mL) and streptomycin (100 μg/mL). Next, we seeded the cells in a 96-well plate by a density of 1.0 x 10^4 cells / well at 37°C for 48 h under 5% CO2. The synthesized compounds with different concentrations were applied into the cell lines and incubated for 48 h. After 48 h, 20 μl of MTT solution (5mg/mL) was added and incubated for 4 h. Then, DMSO (100 μl) was added into each well to dissolve the formed purple formazan. After that, a colorimetric assay was measured and recorded at absorbance of 570 nm using a plate reader (EXL 800, USA). The relative cell viability in percentage was calculated as (A570 of treated samples/A570 of untreated sample) X 100.
(§4) S2: Biological evaluation
(§5) S2.1. In vitro cytotoxic activity
(§6) The anti-proliferative activity of the synthesized compounds was assessed using MTT assay protocol. A panel of human cancer cell lines namely, colorectal carcinoma (HCT-116) and hepatocellular carcinoma (HepG2) was used in this test. As we targeted the DNA and Topo […]
(§7) cell lines were got from ATCC (American Type Culture Collection) via the Holding company for biological products and vaccines (VACSERA, Cairo, Egypt). The anti -proliferative activities of the tested compounds were determined quantitatively as follows:
(§8) At first, the cells were cultured into a medium of RPMI-1640 with 10% fetal bovine serum.
(§9) Then, two different antibiotics were added at 37 ᵒC in a 5% CO2 incubator: penicillin (100 units/mL) and streptomycin (100 µg/mL). Next, we seeded the cells in a 96 -well plate by a density of 1.0 x 10^4 cells / well at 37 ᵒC for 48 h under 5% CO2. The synthesized compounds with different concentrations were applied into the cell lines and incubated for 48 h. After 48 h, 20 µl of MTT solution (5mg/mL) was added and incubated for 4 h. Then, DMSO (100 µl) was added into each well to dissolve the formed purple formazan. After that, a colorimetric assay was measured and recorded at absorbance of 570 nm using a plate reader (EXL 800, USA). The relative cell viability in percentage was calculated as (A570 of treated samples/A570 of untreated sample) X 100. […]

HCT-116 cell line [2] = assay: MTT anti-proliferative assay, HCT-116; format: cell-based; details: Homo sapiens, 48 h, three independent experiments, read-out: In vitro cytotoxicity IC50, HCT-116
Protocol: as §1, §2, §3, §4, §5, §6, §7, §8, §9

[3] = test system: Activated Calf Thymus DNA; assay: DNA/methyl green assay (DNA intercalation); format: binding; details: for LogIC50 (best-fit value, DNA/Topo-II Inhibition (%) curve): log of drug concentration in uM
Protocol: The most promising members (13a, 14a, 16, 17, 18, 19, and 20) were further investigated for their binding affinity against DNA. […] The results of DNA-binding affinities were reported in Table 1 as IC50 values calculated from the concentration-inhibition response curve.
Activated Calf Thymus DNA (Merk, Germany) was treated with methyl green (Merk, Germany), then the synthesized compounds were applied to displace the methyl green dye, producing equivalent color.
(§10) After that, the DNA was run on 1% agarose gel in BioRad gel electrophoresis system for 1–2 h followed by staining with GelRedTM stain for 2 h and destained for 15 min with TAE buffer. The gel was imaged via BioRad’s Gel DocTMEZ system. Both supercoiled and linear strands DNA were incorporated in the gel as markers for DNA-Topo II intercalators. The results of IC50 values were calculated using the GraphPad Prism version 7. Each reaction was performed in duplicate, and at least three independent determinations of each IC50 were made.
S2.3. DNA/Methyl Green Assay […]
methyl green dye method described by Burres et al. Activated Calf Thymus DNA (Merk, Germany) was treated with methyl green (Merk, Germany), then the synthesized compounds were applied to displace the methyl green dye, producing equivalent color. […]

[4] = target: T1, Topoisomerase II (Topo II) (Homo sapiens, UniProt P11388); assay: In vitro Topo II inhibitory assay (TopoGEN Topo II drug screening kit); format: biochemical
T1 construct: purchased TopoGEN, Inc., Columbus
Protocol: The reported method described by Patra et al was applied using Topo II drug screening kit (TopoGEN, Inc., Columbus).
A typical enzyme reaction was structured to determine Topo II activity. The reaction mixture included Topo II (2 μl), substrate super coiled pHot1 DNA (0.25 μg), 50 μg/ml test compound (2 μl), and assay buffer (4 μl). To start the reaction, the mixture was allowed to incubate in 37°C for 30 min. To terminate the reaction, a mixture of 10% sodium dodecylsulphate (2 μl) and proteinase K (50 μg/mL) was added at 37°C for 15 min. then incubated for 15 min at 37°C.
as §10, with “made. […]” for “made.”
S2.2. Measurement of topoisomerase II Activity […]
analyzed for their Topo II inhibitory activities. The reported method described by Patra et al was applied using Topo II drug screening kit (TopoGEN, Inc., Columbus).
A typical enzyme reaction was structured to determine Topo II activity. The reaction mixture included Topo II (2 µl), substrate super coiled pHot1 DNA (0.25 µg), 50 µg/ml test compound (2 µl), and assay buffer (4 µl). To start the reaction, the mixture was allowed to incubate in 37 °C for 30 min. To terminate the reaction, a mixture of 10% sodium dodecylsulphate (2 µl) and proteinase K (50 µg/mL) was added at 37 °C for 15 min. then incubated for 15 min at 37 °C.
as §10, with “made. […]” for “made.”

[5] = target: T1, Topoisomerase II (Topo II); design: method as in PMID 32882440; details: previous work of the authors; cited from earlier work
[6] = test system: Activated Calf Thymus DNA; design: method as in PMID 32882440; details: previous work of the authors; read-out: DNA/Methyl green (IC50); cited from earlier work
HepG2 cell line [7] = test system: HepG2 cell line; design: method as in PMID 32882440; details: previous work of the authors; read-out: In vitro cytotoxicity IC50, HepG2; cited from earlier work
HCT-116 cell line [8] = test system: HCT-116 cell line; design: method as in PMID 32882440; details: previous work of the authors; read-out: In vitro cytotoxicity IC50, HCT-116; cited from earlier work
[9] = 50% inhibition concentration of DNA/methyl green assay, read-out: DNA/Methyl green (IC50)

T1 sequence (P11388 whole entry): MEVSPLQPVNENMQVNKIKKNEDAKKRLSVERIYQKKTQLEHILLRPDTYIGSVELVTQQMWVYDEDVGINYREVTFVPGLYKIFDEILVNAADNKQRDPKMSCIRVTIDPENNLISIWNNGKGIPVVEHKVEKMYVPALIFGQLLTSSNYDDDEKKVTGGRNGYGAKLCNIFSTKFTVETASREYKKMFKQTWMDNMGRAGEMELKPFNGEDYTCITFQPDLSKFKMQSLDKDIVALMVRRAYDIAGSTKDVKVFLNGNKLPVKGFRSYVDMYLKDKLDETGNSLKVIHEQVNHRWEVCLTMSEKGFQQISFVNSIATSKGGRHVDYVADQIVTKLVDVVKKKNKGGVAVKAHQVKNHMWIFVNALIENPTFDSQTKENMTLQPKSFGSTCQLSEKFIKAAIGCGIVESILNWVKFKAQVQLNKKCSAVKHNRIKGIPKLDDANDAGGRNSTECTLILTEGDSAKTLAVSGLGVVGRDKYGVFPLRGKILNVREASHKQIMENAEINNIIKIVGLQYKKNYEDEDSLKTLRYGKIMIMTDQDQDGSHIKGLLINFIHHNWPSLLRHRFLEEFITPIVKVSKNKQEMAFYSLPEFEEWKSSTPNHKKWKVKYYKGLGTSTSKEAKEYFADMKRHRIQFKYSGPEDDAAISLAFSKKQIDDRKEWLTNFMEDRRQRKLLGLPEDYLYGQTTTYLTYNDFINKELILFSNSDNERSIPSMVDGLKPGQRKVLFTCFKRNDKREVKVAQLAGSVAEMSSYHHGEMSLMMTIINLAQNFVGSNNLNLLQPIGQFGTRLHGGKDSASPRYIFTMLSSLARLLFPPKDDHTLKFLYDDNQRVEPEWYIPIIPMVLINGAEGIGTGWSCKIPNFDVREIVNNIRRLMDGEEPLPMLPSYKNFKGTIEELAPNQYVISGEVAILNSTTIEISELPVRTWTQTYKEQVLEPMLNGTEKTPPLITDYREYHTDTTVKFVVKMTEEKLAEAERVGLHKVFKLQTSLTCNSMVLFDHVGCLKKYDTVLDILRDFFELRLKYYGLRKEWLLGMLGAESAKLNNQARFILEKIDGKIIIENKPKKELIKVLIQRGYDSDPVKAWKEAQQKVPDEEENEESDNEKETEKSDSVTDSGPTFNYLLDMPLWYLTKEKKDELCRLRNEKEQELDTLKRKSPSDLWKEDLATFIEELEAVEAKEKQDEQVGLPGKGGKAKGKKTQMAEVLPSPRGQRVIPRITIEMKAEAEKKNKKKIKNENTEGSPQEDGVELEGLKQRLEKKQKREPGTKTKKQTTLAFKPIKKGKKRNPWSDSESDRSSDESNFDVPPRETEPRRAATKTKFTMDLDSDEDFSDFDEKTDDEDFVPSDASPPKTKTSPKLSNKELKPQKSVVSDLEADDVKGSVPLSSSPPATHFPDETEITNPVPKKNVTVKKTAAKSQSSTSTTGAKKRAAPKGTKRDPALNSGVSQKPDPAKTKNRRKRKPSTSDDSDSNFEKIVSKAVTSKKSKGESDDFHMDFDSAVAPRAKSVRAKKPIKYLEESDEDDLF

SMILES	IC50 (HepG2 cell line [1]) [µM]	IC50 (HCT-116 cell line [2]) [µM]	IC50 [3, 9] [µM]	LogIC50 (best-fit value, DNA/Topo-II Inhibition (%) curve) ([3]; supplement curve fit)	HillSlope (best-fit value, DNA/Topo-II Inhibition (%) curve) ([3]; supplement curve fit)	IC50 [4] [µM]	also measured
CCCNc1nc2ccccc2c2nnc(-c3ccc(C)cc3)n12 [Compound 11a, N-Propyl-3-(p-tolyl)-[1,2,4]triazolo[4,3-c]quinazolin-5-amine]	15.5 ± 1	8.42 ± 0.3	–	–	–	–	–
CCCNc1nc2ccccc2c2nnc(-c3ccc(Cl)cc3)n12 [Compound 11b, 3-(4-Chlorophenyl)-N-propyl-[1,2,4]triazolo[4,3-c]quinazolin-5-amine]	29.9 ± 1.3	25 ± 0.9	–	–	–	–	–
Cc1ccc(-c2nnc3c4ccccc4nc(NCCO)n23)cc1 [Compound 12a, 2-((3-(p-Tolyl)-[1,2,4]triazolo[4,3-c]quinazolin-5-yl)amino)ethan-1-ol]	18.8 ± 1.2	11.9 ± 0.3	–	–	–	–	–
OCCNc1nc2ccccc2c2nnc(-c3ccc(Cl)cc3)n12 [Compound 12b, 2-((3-(4-Chlorophenyl)-[1,2,4]triazolo[4,3-c]quinazolin-5-yl)amino)ethan-1-ol]	17.8 ± 0.9	7.03 ± 0.2	–	–	–	–	–
Cc1ccc(-c2nnc3c4ccccc4nc(N(C)C)n23)cc1 [Compound 13a, N,N-Dimethyl-3-(p-tolyl)-[1,2,4]triazolo[4,3-c]quinazolin-5-amine]	10.7 ± 0.6	11.6 ± 0.5	52.9 ± 1.6	1.723	0.4587	36.1 ± 1.9	–
CN(C)c1nc2ccccc2c2nnc(-c3ccc(Cl)cc3)n12 [Compound 13b, 3-(4-Chlorophenyl)-N,N-dimethyl-[1,2,4]triazolo[4,3-c]quinazolin-5-amine]	33.1 ± 1.7	16.9 ± 0.9	–	–	–	–	–
Cc1ccc(-c2nnc3c4ccccc4nc(NC4CCCCC4)n23)cc1 [Compound 14a, N-Cyclohexyl-3-(p-tolyl)-[1,2,4]triazolo[4,3-c]quinazolin-5-amine]	13 ± 0.5	7.66 ± 0.2	22.5 ± 0.9	1.353	0.4583	30.4 ± 1.8	–
Clc1ccc(-c2nnc3c4ccccc4nc(NC4CCCCC4)n23)cc1 [Compound 14b, 3-(4-Chlorophenyl)-N-cyclohexyl-[1,2,4]triazolo[4,3-c]quinazolin-5-amine]	29.5 ± 1.2	17.4 ± 0.4	–	–	–	–	–
Cc1ccc(-c2nnc3c4ccccc4nc(N4CCOCC4)n23)cc1 [Compound 15a, 4-(3-(p-Tolyl)-[1,2,4]triazolo[4,3-c]quinazolin-5-yl)morpholine]	20.4 ± 0.9	20 ± 0.4	–	–	–	–	–
Clc1ccc(-c2nnc3c4ccccc4nc(N4CCOCC4)n23)cc1 [Compound 15b, 4-(3-(4-Chlorophenyl)-[1,2,4]triazolo[4,3-c]quinazolin-5-yl)morpholine]	23.4 ± 0.9	21 ± 0.3	–	–	–	–	–
OCCNc1nc2ccccc2c2nnc(C(F)(F)F)n12 [Compound 17, 2-((3-(Trifluoromethyl)-[1,2,4]triazolo[4,3-c]quinazolin-5-yl)amino)ethan-1-ol]	5.65 ± 0.1	2.78 ± 0.1	11.1 ± 0.7	1.045	0.4423	17.7 ± 0.8	–
CN(C)c1nc2ccccc2c2nnc(C(F)(F)F)n12 [Compound 18, N,N-Dimethyl-3-(trifluoromethyl)-[1,2,4]triazolo[4,3-c]quinazolin-5-amine]	6.82 ± 0.2	4.17 ± 0.1	12.5 ± 0.6	1.098	0.3961	18.3 ± 0.8	–
FC(F)(F)c1nnc2c3ccccc3nc(NC3CCCCC3)n12 [Compound 19, N-Cyclohexyl-3-(trifluoromethyl)-[1,2,4]triazolo[4,3-c]quinazolin-5-amine]	8.91 ± 0.2	9.43 ± 0.3	23.6 ± 1.3	1.373	0.3612	18.7 ± 0.9	–
FC(F)(F)c1nnc2c3ccccc3nc(N3CCOCC3)n12 [Compound 20, 4-(3-(Trifluoromethyl)-[1,2,4]triazolo[4,3-c]quinazolin-5-yl)morpholine]	8.34 ± 0.3	4.61 ± 0.2	34.5 ± 1.2	1.538	0.3425	20.6 ± 0.9	–
COc1cccc2c1C(=O)c1c(O)c3c(c(O)c1C2=O)C[C@@](O)(C(=O)CO)C[C@@H]3O[C@H]1C[C@H](N)[C@H](O)[C@H](C)O1 [Doxorubicin, reference compound]	3.8 ± 0.1	1.87 ± 0.1	5.64 ± 0.1	–	0.3659	–	IC50 ([3]; supplement curve fit, read-out: IC50 (best-fit value, DNA/Topo-II Inhibition (%) curve)): 5.64 µM
O=C(CSc1nnc2c3ccccc3c(=O)n(CC(=O)Nc3ccc(C(=O)O)cc3)n12)Nc1ccc(C(=O)O)cc1 [VIIa]	–	–	–	–	–	–	IC50 [5]: 7.45 ± 0.44 µM; IC50 [6]: 48.3 ± 2.3 µM; IC50 (HepG2 cell line [7]): 3.91 ± 0.15 µM; IC50 (HCT-116 cell line [8]): 2.62 ± 0.1 µM
